# From US20050176091A1, “Process for producing kiss-1 peptide” (priority 2002, published 2005)
# Where no end group is shown, it is not given here.
# Tested on: intracellular Ca ion concentration
# Assay: Biological activity assay: intracellular Ca ion concentration-increasing activity (method of Example 3 of WO 99/33976)
# Assay type: cell-based
# Conditions: compared with a sample purified from human placenta extract
substance,measurement,value
KiSS-1 peptide: Human KiSS-1 peptide (SEQ ID NO: 1) obtained in Example 2 by S-cyanylation and ammonolysis of a fused protein expressed in E. coli (GTSLSPPPESSGSRQQPGLSAPHSRQIPAPQGAVLVQREKDLPNYNWNSFGLRF-NH2),intracellular Ca ion concentration-increasing activity,equivalent to that of a sample purified from human placenta extract
